The record followed here is ChEMBL document CHEMBL5233226 (Eur J Med Chem, 2020).

In assay [1] the target is T1, Plasma kallikrein (Homo sapiens, UniProt P03952). The assay is described as follows: Inhibition of human plasma kallikrein using H-D-Pro-Phe-Arg-p-nitroaniline as substrate assessed as inhibition constant.
The target of assay [2] is T1, Plasma kallikrein. The assay is described as follows: Inhibition of plasma kallikrein (unknown origin).
Assay [3] has as its target T1, Plasma kallikrein. The assay is described as follows: Inhibition of human plasma kallikrein usingPro-Phe-Arg-AMC as substrate incubated for 5 mins. The assay is classed as single protein.
Assay [4] deals with T1, Plasma kallikrein. The experiment in a line: Inhibition of human plasma kallikrein using H-DPro-Phe-Arg-AFC as substrate.
Assay [5] deals with Urokinase-type plasminogen activator (Homo sapiens, UniProt P00749). The experiment in a line: Inhibition of Urokinase (unknown origin).
The target in assay [6] is T2, Plasminogen (Homo sapiens, UniProt P00747). The assay is described as follows: Inhibition of plasmin (unknown origin).
In assay [7] the target is T3, Coagulation factor XI (Homo sapiens, UniProt P03951). The assay is described as follows: Inhibition of human fXIa using Z-Gly-Pro-Arg-AFC as substrate.
The target in assay [8] is T4, Prothrombin (Homo sapiens, UniProt P00734). The assay is described as follows: Inhibition of human thrombin.
In assay [9] the target is T2, Plasminogen. The assay is described as follows: Inhibition of human plasmin.
The next assay concerns the target Kallikrein-1 (Homo sapiens, UniProt P06870). The experiment in a line: Inhibition of KLK1 (unknown origin).
Assay [10] has as its target T5, Trypsin (Homo sapiens, UniProt P07477+P07478+P35030). The assay is described as follows: Inhibition of human trypsin. Type of assay: protein assay.
Assay [11] concerns the target T6, Coagulation factor XII (Homo sapiens, UniProt P00748).
T6 sequence (P00748 whole entry): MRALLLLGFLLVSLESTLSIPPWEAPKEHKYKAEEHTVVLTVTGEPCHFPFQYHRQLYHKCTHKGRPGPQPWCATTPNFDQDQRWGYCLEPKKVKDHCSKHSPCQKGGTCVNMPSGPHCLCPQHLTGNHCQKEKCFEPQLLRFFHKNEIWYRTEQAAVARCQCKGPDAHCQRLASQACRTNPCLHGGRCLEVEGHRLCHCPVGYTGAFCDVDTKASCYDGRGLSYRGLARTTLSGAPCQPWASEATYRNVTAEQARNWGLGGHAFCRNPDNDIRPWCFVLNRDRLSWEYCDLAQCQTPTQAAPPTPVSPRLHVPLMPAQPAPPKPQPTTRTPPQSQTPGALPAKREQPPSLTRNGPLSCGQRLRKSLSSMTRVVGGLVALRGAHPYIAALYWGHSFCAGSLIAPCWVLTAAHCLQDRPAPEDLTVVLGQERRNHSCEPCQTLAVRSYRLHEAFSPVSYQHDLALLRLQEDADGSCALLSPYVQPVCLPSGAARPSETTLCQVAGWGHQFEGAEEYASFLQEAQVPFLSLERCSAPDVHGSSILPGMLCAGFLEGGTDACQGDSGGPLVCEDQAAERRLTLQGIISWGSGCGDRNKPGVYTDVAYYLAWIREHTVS
The experiment in a line: Inhibition of human fXIIa using H-DPro-Phe-Arg-AFC as substrate.

The target of assay [12] is T3, Coagulation factor XI. The assay is described as follows: Inhibition of fXIa (unknown origin).
The target of assay [13] is T4, Prothrombin. The experiment in a line: Inhibition of thrombin (unknown origin).
The next assay addresses Coagulation factor X (Homo sapiens, UniProt P00742). The experiment in a line: Inhibition of fXa (unknown origin).
Assay [14] concerns the target T6, Coagulation factor XII. The experiment in a line: Inhibition of fXIIa (unknown origin).
For assay [15], the target named is T1, Plasma kallikrein. The experiment in a line: Inhibition of human plasma kallikrein incubated for 1 hrs.
Assay [16] addresses T3, Coagulation factor XI. The experiment in a line: Inhibition of human fXIa incubated for 1 hrs.
For assay [17], the target named is Plasma kallikrein (Rattus norvegicus, UniProt P14272). The experiment in a line: Inhibition of rat recombinant plasma kallikrein using Z-FR-AMC as substrate assessed as inhibition constant by fluorescence plate reader analysis.
The target in assay [18] is T6, Coagulation factor XII. The assay is described as follows: Inhibition of human fXIIa using Z-GGR-AMC as substrate assessed as inhibition constant by fluorescence plate reader analysis.
In assay [19] the target is T4, Prothrombin. The assay is described as follows: Inhibition of human thrombin using Z-GGR-AMC as substrate assessed as inhibition constant by fluorescence plate reader analysis.
For assay [20], the target named is T2, Plasminogen. The experiment in a line: Inhibition of human plasmin using H-d-VLK-AM as substrate assessed as inhibition constant by fluorescence plate reader analysis.
Assay [21] deals with T3, Coagulation factor XI. The experiment in a line: Inhibition of human fXIa using Boc-FSR-AMC as substrate assessed as inhibition constant by fluorescence plate reader analysis.
Assay [22] addresses T5, Trypsin. The experiment in a line: Inhibition of trypsin (unknown origin). The assay is classed as protein assay.

*1 amine or outer side, *2 acyl side, *3 side chain or, on linkers, in order; H or OH if unused. Where a SMILES comes first, the peptide text is derived from it. Bridges are numbered along the chain shown (N, C = ends). TBMB = c1c(C[*:1])cc(C[*:3])cc1C[*:2]

T3 sequence (P03951 19-387 limits assumed): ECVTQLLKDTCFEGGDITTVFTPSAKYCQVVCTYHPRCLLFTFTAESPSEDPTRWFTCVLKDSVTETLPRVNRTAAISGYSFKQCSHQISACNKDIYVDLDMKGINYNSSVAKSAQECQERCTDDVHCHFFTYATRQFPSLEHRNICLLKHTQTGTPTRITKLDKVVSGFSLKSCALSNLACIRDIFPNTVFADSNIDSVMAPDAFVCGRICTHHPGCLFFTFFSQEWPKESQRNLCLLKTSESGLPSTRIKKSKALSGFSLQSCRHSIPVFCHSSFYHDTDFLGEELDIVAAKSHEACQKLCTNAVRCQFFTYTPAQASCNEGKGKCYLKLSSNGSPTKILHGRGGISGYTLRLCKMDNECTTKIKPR
T3 sequence (P03951 388-625 limits assumed): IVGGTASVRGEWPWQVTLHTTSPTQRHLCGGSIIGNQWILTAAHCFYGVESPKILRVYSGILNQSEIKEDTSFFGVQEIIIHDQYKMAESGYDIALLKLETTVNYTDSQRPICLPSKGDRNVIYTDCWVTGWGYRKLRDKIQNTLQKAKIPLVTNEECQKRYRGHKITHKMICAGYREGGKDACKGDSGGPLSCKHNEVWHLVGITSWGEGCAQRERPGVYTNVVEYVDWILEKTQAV
T2 sequence (P00747 97-580 limits assumed): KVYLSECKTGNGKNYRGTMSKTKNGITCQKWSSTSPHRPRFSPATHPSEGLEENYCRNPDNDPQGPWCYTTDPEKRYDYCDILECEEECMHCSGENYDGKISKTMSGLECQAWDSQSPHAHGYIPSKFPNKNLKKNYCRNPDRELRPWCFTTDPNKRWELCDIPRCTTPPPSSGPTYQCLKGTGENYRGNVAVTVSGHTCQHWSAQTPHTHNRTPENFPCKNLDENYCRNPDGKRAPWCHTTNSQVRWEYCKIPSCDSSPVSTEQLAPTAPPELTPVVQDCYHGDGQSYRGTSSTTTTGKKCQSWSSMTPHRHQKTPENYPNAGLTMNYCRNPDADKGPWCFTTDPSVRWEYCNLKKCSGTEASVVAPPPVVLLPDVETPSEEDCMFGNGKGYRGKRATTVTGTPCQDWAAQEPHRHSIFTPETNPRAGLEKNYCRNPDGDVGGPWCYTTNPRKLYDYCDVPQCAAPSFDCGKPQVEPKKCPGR
T2 sequence (P00747 581-810 limits assumed): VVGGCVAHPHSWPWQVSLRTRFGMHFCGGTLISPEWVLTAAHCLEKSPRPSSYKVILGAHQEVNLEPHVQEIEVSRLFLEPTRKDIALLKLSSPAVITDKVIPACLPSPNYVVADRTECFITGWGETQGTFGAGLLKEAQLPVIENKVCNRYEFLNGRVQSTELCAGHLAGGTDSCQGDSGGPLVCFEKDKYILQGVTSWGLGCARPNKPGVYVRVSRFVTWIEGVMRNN
T1 sequence (P03952 20-390 limits assumed): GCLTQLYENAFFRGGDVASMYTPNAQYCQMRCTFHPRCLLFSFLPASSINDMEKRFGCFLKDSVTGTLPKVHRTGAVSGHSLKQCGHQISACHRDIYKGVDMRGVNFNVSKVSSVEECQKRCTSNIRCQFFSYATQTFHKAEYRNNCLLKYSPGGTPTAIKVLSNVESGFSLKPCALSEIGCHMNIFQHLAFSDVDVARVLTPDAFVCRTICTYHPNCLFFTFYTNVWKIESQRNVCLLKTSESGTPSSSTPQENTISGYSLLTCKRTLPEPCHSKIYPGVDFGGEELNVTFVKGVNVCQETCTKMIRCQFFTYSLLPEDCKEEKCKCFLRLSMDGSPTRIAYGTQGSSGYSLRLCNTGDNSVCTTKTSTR
T1 sequence (P03952 391-638 limits assumed): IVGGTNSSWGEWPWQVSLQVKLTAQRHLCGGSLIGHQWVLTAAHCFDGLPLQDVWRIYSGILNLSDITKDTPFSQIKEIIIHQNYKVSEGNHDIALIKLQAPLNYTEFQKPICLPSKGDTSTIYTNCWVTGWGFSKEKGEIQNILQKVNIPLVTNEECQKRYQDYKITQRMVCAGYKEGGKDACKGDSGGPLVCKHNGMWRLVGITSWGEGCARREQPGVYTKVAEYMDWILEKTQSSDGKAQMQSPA
Sequence of Kallikrein-1 (P06870 whole entry): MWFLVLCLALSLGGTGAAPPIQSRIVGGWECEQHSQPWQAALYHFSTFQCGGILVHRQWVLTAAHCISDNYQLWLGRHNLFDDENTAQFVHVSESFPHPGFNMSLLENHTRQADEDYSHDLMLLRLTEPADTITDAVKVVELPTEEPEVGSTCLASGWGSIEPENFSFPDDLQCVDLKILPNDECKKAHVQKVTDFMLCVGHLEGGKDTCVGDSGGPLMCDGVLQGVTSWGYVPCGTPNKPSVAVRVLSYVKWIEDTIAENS
Sequence of Plasma kallikrein (Rattus norvegicus, UniProt P14272) (P14272 20-390 limits assumed): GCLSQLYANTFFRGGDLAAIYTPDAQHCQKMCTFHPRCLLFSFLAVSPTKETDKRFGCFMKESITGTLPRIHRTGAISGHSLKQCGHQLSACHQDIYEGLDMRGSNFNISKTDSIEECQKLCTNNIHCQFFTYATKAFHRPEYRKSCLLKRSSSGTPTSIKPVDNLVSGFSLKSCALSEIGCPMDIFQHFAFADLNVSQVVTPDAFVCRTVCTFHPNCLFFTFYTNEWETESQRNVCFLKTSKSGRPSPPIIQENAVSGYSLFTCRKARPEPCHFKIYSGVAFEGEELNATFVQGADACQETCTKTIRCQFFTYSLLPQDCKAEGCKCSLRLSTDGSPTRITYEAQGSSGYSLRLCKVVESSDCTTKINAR
Sequence of Plasma kallikrein (Rattus norvegicus, UniProt P14272) (P14272 391-638 limits assumed): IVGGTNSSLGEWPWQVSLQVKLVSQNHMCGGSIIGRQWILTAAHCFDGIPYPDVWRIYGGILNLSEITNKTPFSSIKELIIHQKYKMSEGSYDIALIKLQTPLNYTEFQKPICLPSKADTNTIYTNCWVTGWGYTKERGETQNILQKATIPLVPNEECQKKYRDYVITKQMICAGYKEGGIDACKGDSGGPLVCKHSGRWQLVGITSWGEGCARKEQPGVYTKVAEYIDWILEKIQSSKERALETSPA
Sequence of Coagulation factor X (P00742 41-179 limits assumed): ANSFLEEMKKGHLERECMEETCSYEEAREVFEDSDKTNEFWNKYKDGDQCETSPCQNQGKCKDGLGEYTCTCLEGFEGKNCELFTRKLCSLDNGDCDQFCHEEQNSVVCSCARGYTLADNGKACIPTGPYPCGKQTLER
Sequence of Coagulation factor X (P00742 235-488 limits assumed): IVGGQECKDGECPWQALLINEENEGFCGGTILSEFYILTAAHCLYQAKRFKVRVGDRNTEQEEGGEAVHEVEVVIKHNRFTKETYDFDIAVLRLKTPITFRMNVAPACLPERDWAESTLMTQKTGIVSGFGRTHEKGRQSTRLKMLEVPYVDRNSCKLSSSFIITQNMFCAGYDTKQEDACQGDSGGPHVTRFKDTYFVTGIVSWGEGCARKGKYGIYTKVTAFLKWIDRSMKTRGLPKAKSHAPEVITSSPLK

For the molecule `CCCOC(c1ccccc1)c1cccc(NC(=O)c2cc(C(F)(F)F)nn2-c2cccc(CN)c2)c1` (stereo not drawn), at Plasma kallikrein [1], the IC50 (usually the concentration at which inhibition is half-maximal) was > 50000 nM.
On to `N=C(N)NCCCC[C@H](NC(=O)C1CCC(CN)CC1)C(=O)Nc1ccc(C(=O)O)cc1` (stereo partly drawn), for which the IC50 against Plasma kallikrein [2] was determined as 14000 nM.
As to `CS(=O)(=O)c1cc(Cc2cc(C(=O)NCc3cnc4[nH]cc(Cl)c4c3)ccn2)ccc1Cn1ccccc1=O`, the IC50 against Plasma kallikrein [3] is < 100 nM.
Consider `CCO[C@@H]1C[C@H](C(=O)Nc2cc(C(N)(CCC3CC3)c3ccccn3)ccc2F)N(C(=O)Nc2ccc(Cl)cc2)C1` (stereo partly drawn), for which the IC50 on Plasma kallikrein [1] was < 50 nM.
As for `NC(CCC1CC1)(c1ccc(F)c(NC(=O)[C@H]2CC(F)(F)CN2C(=O)Nc2ccc(Cl)cn2)c1)c1ccccn1` (stereo partly drawn), the IC50 on Plasma kallikrein [1] was < 50 nM.
The molecule `CCOc1ccc(C[C@@H](NC(=O)c2sccc2C)C(=O)N[C@@H](Cc2ccccc2)C(=O)NCc2ccc(CN)cc2)cc1` came in with an IC50 against Plasma kallikrein [4] of 10 nM.
As to `CC(=O)c1ccc(NC(=O)[C@H](Cc2ccccc2)NC(=O)C2CCC(CN)CC2)cc1` (stereo partly drawn), the figures for the IC50 (in assay [5]; at Plasminogen [6]; on Plasma kallikrein [2]) were 58000 nM, 21000 nM and 850 nM, respectively.
The molecule `COC(=O)c1ccc(NC(=O)[C@H](CCCCNC(=N)N)NC(=O)C2CCC(CN)CC2)cc1` (stereo partly drawn) yielded an IC50 on Plasma kallikrein [2] of 18000 nM.
`COc1ccnc(CNC(=O)c2cn(Cc3ccc(Cn4ccccc4=O)cc3)nc2C(F)(F)F)c1F`: the IC50 at Coagulation factor XI [7] is > 40000 nM; at Prothrombin [8] it was > 40000 nM; against Plasminogen [9] it was > 40000 nM; against Kallikrein-1 it was > 4000 nM; on Trypsin [10] it was > 40000 nM; at Coagulation factor XII [11], > 4000 nM.
As for `Fc1cc2[nH]cc(Cl)c2cc1CNc1ncnc2nc(Cc3ccc4ncc(Cl)cc4c3)[nH]c12`, on Plasma kallikrein [3], the concentration for half-maximal inhibition (IC50) was < 100 nM.
For the molecule `N=C(N)c1cccc(-n2nc(C(F)(F)F)cc2C(=O)Nc2cc(C(NCC3CC3)c3ccccc3)ccc2F)c1` (stereo not drawn), on Plasma kallikrein [1], the IC50 came out at 100 nM.
With `NCc1cccc(-n2nc(C(N)=O)cc2C(=O)Nc2cc(C(NCC3CC3)c3ccccc3)ccc2F)c1` (stereo not drawn), on Plasma kallikrein [1], the IC50 stood at 100 nM and the Ki (in general, a measure of affinity in units of concentration, obtained from inhibition or displacement) came out at 0.1 nM.
Take `Fc1cc2[nH]cc(Cl)c2cc1CNc1ncnc2nc(Cc3ccc4ncc(C(F)(F)F)cc4c3)[nH]c12`: the IC50 against Plasma kallikrein [3] is < 100 nM.
Take `N=C(N)c1ccc(CNC(=O)c2cnn(Cc3ccccc3)c2)cc1`: the IC50 against Coagulation factor XI [12] is > 10000 nM; against Prothrombin [13] it was > 10000 nM; against Coagulation factor X, > 10000 nM; on Plasma kallikrein [2] it was 90 nM; at Coagulation factor XII [14], > 10000 nM.
In the case of `CC(=O)c1ccc(NC(=O)C(CCCNC(=N)NS(=O)(=O)c2c(C)cc(C)cc2C)NC(=O)C2CCC(CN)CC2)cc1` (stereo not drawn), the IC50 at Plasminogen [6] turned out to be 42000 nM; against Plasma kallikrein [2] it was 2000 nM.
For `CO[C@@H]1C[C@H](C(=O)Nc2cc(C(N)(CCC3CC3)c3ccccn3)ccc2F)N(C(=O)Nc2ccc(Cl)cc2)C1` (stereo partly drawn), the IC50 at Plasma kallikrein [1] is < 50 nM.
With `Cc1cc(N)nc(C)c1CNC(=O)c1cnn(Cc2ccc(Cn3cccn3)cc2)c1`, the IC50 against Plasma kallikrein [15] was 2.4 nM; on Coagulation factor XI [16] it was 106000 nM.
As for `Nc1nccc2ccc(-n3nc(C(F)(F)F)cc3C(=O)Nc3cc(C(NCC4CC4)c4ccccc4)ccc3F)cc12` (stereo not drawn), the IC50 at Plasma kallikrein [1] was 100 nM.
Turning to `NC(CCC1CC1)(c1ccc(F)c(NC(=O)[C@H]2C[C@](O)(c3ccccc3)CN2C(=O)Nc2ccc(Cl)cc2)c1)c1ccccn1` (stereo partly drawn), at Plasma kallikrein [1], the half-inhibitory concentration (IC50) is < 50 nM.
In the case of `CC(N)C(=O)NC1CSCc2cc3cc(c2)CSCC(C(=O)NC(C)C(N)=O)NC(=O)C(CCCNC(=N)N)NC(=O)C(C(C)C)NC(=O)C(CC(N)=O)NC(=O)C(CSC3)NC(=O)C(C)NC(=O)C(CCCCN)NC(=O)C(Cc2ccccc2)NC1=O` (stereo not drawn) (H-ACFKACNVRCA-NH2; linker 2-6-10 via TBMB; configuration not given here), the Ki at Plasma kallikrein [17] was 27.2 nM; on Coagulation factor XII [18], > 50000 nM; at Plasminogen [20] it was 5.2 nM; on Coagulation factor XI [21] it was > 50000 nM. For the same molecule, the IC50 on Prothrombin [19] was > 50000 nM.
On to `COCc1nn(Cc2ccc(Cn3cccn3)cc2)cc1C(=O)NCc1ccc2c(N)nccc2c1C`, for which the IC50 at Plasma kallikrein [4] was found to be 0.56 nM.
In the case of `COCc1nn(Cc2ccc(Cn3cc(F)ccc3=O)cc2)cc1C(=O)NCc1nccc(OC)c1F`, the IC50 against Kallikrein-1, at Prothrombin [13], at Plasminogen [6] and at Trypsin [22] was > 40000 nM throughout.
